# Source: publication PMC6291243 (The Journal of organic chemistry, 2018)
# Assays:
# LipM = molecular target: T1, LipM (Streptomyces sp. SANK 60405, UniProt D4QF26); experiment: HPLC of UDP-sugar, coupled with phosphorylase; format: biochemical; conditions: generated in situ from 13b; UTP
# T1 sequence (D4QF26 1-233): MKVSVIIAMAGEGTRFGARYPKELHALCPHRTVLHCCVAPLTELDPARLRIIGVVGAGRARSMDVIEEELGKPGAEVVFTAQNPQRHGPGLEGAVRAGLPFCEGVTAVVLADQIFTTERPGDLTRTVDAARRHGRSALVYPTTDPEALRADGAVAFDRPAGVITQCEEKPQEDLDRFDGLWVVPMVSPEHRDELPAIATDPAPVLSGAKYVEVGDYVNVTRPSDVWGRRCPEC
# Mur20 = Mur20 (Streptomyces sp. NRRL 30471, UniProt F2WUD2); experiment: HPLC, specific activity; format: biochemical; conditions: amine donor; 1 mM 11a, 50 mM potassium phosphate pH 7.5, 30 °C
Structure (SMILES),"HPLC of UDP-sugar, coupled with phosphorylase (LipM)","HPLC, specific activity (Mur20)"
"NC[C@H]1O[C@H](OP(=O)(O)O)C[C@@H]1O [5-amino-2,5-dideoxy-α-D-ribose-1-phosphate]",either enzyme was substituted with the respective orthologous proteins LipP or LipM,
N[C@@H](Cc1ccc(O)cc1)C(=O)O [L-Tyr],,the specific activity for Mur20 was highest using L-Tyr as an amine donor
